≈ marks a conversion by molar mass, not a printed value.
Tests used:
[1] = target: Transient receptor potential cation channel subfamily V member 4 (Rattus norvegicus, UniProt Q9ERZ8); assay: Antagonist activity at rat TRPV4 receptor expressed in HEK293 cells assessed as inhibition of EC80 of 4alpha-PDD-stimulated calcium flux after 10 mins; type: cell-based
[2] = target: Transient receptor potential cation channel subfamily V member 4 (Homo sapiens, UniProt Q9HBA0); assay: Antagonist activity at human TRPV4 receptor expressed in HEK293 cells assessed as inhibition of EC80 of 4alpha-PDD-stimulated calcium flux after 10 mins; type: cell-based
[3] = Cmax in Wistar rat at 1.80 mg/kg, po; type: ADME, organism-based; design: dose 1.8 mg/kg, route oral; settings: in vivo, 1.8 mg/kg
[4] = Plasma protein binding in human; type: ADME, cell-free; settings: read-out: PPB (converted)
[5] = Half life in Wistar rat at 1.05 mg/kg, iv; type: ADME, organism-based; settings: in vivo
[6] = Volume of distribution at steady state in Wistar rat at 1.05 mg/kg, iv; type: ADME, organism-based; settings: in vivo, read-out: Vdss
[7] = Plasma protein binding in rat; type: ADME, cell-free; settings: read-out: PPB (converted)
[8] = Solubility of the compound at pH 7.4; type: physicochemical; settings: buffer
[9] = Oral bioavailability in Wistar rat at 1.80 mg/kg; type: ADME, organism-based; settings: in vivo, 1.8 mg/kg
[10] = AUC (infinity) in Wistar rat at 1.80 mg/kg, po; type: ADME, organism-based; design: dose 1.8 mg/kg, time infinity, route oral; settings: in vivo, 1.8 mg/kg
[11] = Clearance in Wistar rat at 1.05 mg/kg, iv; type: ADME, organism-based; settings: in vivo
[12] = AUC (infinity) in Wistar rat at 1.05 mg/kg, iv; type: ADME, organism-based; design: dose 1.05 mg/kg, route intravenous, time infinity; settings: in vivo

Chain of Transient receptor potential cation channel subfamily V member 4 (Rattus norvegicus, UniProt Q9ERZ8) (Q9ERZ8 whole entry): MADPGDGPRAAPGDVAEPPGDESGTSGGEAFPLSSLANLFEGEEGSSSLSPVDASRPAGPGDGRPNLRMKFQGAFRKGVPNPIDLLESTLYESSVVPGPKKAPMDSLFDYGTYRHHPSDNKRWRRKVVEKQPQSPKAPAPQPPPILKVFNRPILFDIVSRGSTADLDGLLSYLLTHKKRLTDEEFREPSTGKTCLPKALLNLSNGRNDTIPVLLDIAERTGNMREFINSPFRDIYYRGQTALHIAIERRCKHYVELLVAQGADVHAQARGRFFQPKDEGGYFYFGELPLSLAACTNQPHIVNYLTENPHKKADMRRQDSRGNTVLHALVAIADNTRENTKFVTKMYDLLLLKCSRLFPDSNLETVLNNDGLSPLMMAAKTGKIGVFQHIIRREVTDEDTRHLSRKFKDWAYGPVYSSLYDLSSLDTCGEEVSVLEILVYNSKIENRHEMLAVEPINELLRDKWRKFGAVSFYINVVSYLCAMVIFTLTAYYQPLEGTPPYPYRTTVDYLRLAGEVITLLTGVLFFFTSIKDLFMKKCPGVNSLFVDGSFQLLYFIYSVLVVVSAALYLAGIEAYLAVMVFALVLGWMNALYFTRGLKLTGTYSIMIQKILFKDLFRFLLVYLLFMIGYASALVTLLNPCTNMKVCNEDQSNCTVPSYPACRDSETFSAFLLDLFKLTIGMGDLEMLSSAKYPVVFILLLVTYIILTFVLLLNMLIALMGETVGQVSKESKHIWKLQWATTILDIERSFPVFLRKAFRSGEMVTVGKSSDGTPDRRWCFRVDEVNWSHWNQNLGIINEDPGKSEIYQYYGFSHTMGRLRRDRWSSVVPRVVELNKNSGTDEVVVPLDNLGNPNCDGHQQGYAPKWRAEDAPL
Chain of Transient receptor potential cation channel subfamily V member 4 (Homo sapiens, UniProt Q9HBA0) (Q9HBA0 whole entry): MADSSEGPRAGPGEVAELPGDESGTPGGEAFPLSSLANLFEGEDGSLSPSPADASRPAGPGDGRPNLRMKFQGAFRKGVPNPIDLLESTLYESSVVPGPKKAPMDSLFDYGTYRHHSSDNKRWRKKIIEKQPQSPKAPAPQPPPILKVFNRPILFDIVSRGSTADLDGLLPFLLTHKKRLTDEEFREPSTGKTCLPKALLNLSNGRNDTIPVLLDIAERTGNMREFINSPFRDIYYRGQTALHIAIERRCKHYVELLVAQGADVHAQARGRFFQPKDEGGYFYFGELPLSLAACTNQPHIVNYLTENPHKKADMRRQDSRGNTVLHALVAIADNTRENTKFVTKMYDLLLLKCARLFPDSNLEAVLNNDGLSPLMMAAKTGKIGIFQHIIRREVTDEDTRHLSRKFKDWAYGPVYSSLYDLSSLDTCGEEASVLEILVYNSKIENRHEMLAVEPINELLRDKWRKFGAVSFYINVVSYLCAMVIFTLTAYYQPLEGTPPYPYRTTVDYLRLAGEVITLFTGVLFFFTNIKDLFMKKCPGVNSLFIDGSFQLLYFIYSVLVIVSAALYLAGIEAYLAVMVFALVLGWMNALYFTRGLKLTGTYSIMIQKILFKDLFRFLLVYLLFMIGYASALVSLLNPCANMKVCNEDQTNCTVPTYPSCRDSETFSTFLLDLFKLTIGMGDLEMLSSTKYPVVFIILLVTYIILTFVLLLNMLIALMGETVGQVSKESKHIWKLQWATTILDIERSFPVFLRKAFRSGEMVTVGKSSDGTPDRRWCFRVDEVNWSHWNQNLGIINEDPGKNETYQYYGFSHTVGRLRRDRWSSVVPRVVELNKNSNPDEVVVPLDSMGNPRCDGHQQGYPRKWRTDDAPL

IC50 [1] [µM] | IC50 [2] [µM] | SMILES | also measured
> 10 | > 10 | CC(C)N1CCN(C(=O)c2ccc(NC(=O)c3ccc(C(F)(F)F)cc3)cc2)CC1 | 
0.94 | 0.71 | CC(C)N1CCN(S(=O)(=O)c2ccc(NC(=O)c3ccc(C(F)(F)F)cc3)cc2)CC1 | 
 | 1.32 | CC(C)N1CCCN(S(=O)(=O)c2ccc(NC(=O)c3ccc(C(F)(F)F)cc3)cc2)CC1 | 
3.9 | 0.93 | CC(C)N1CCN(S(=O)(=O)c2ccc(NC(=O)c3ccc(-c4ncccc4Cl)cc3)cc2)CC1 | 
2.92 | 0.93 | CC(C)N1CCN(S(=O)(=O)c2ccc(NC(=O)c3ccc(C(F)(F)F)cc3N)cc2)CC1 | 
0.39 | 0.26 | CC(C)N1CCN(S(=O)(=O)c2ccc(NC(=O)c3ccc(S(F)(F)(F)(F)F)cc3)cc2)CC1 | Cmax [3]: 143 ng/mL; fraction unbound [4]: 0.0008; half-life [5]: 1.03 h; Vd [6]: 2.01 L/kg; fraction unbound [7]: 0.0009; solubility [8]: 0.15 µM (≈ 0.077 µg/mL); bioavailability [9]: 22.7%; AUC(0-inf) [10]: 303 ng·h/mL; clearance [11]: 22.5 mL/min/kg; AUC(0-inf) [12]: 779 ng·h/mL
0.49 | 0.54 | CC(C)N1CCN(S(=O)(=O)c2ccc(NC(=O)c3ccc(C(F)(F)F)cc3C(F)(F)F)cc2)CC1 | 
> 10 | > 10 | CC(C)N1CCN(S(=O)(=O)c2ccc(NS(=O)(=O)c3ccc(C(F)(F)F)cc3)cc2)CC1 | 
 | 1.28 | CCN(C)C1CCN(S(=O)(=O)c2ccc(NC(=O)c3ccc(C(F)(F)F)cc3)cc2)CC1 | 
1.94 | 2.17 | CC(C)N1CCN(S(=O)(=O)c2ccc(NC(=O)c3cccc(C(F)(F)F)c3)cc2)CC1 | 
4.3 | 8.53 | CC(C)N1CCN(S(=O)(=O)c2ccc(NC(=O)c3ccccc3)cc2)CC1 | 
1.05 | 0.39 | CC(C)N1CCN(S(=O)(=O)c2ccc(NC(=O)c3ccc(C(C)(C)C)cc3)cc2)CC1 | 
0.37 | 0.38 | CC(C)N1CCN(S(=O)(=O)c2ccc(NC(=O)c3ccc(C(F)(F)F)cc3F)cc2)CC1 | 
6.49 | 4.93 | CC(C)N1CCN(S(=O)(=O)c2ccc(NC(=O)c3ccc(-c4ccccn4)cc3)cc2)CC1 | 
 | 0.91 | CCN(CC)C1CCN(S(=O)(=O)c2ccc(NC(=O)c3ccc(C(F)(F)F)cc3)cc2)CC1 | 
 | 2.11 | CN(C)C1CCN(S(=O)(=O)c2ccc(NC(=O)c3ccc(C(F)(F)F)cc3)cc2)CC1 | 
 | 0.8 | O=C(Nc1ccc(S(=O)(=O)N2CCN(C3CCCC3)CC2)cc1)c1ccc(C(F)(F)F)cc1 | 
5.74 | 4.22 | CN(C)S(=O)(=O)c1ccc(NC(=O)c2ccc(C(F)(F)F)cc2)cc1 | 

Reference: ChEMBL document CHEMBL3612012, “Identification of orally-bioavailable antagonists of the TRPV4 ion-channel” (Bioorg Med Chem Lett, 2015)
